For data set [1] the following is noted: pH 7.4.
Description: The tests for identification of pharmacological activities of the compound of formula (I) according to the present invention were conducted as follows. First, the test for percutaneous absorption was carried out by cutting off the dorsal skin from 8-weeks aged female mouse, applying the test sample (35 mM) to the skin and then analysing the percutaneous absorption of the test sample by means of an apparatus for measuring percutaneous absorption (Franz cell) and HPLC.
Specifically, the dorsal skin of 8-weeks aged female mouse (naked mouse) was cut off and then 35 ml solution of the test sample was applied in an amount of 250 μl to the skin having a size of 1.7cm^2. Using the apparatus for measuring percutaneous absorption (Franz cell), after 24 hours, the absorbed materials were extracted respectively from 7 ml of the receptor solution [50 mM PBS buffer solution (pH=7.4) containing 2% VolPO20 Polyethylene oleyl ether (HLB=16)] and the skin and then quantitatively analyzed by high pressure liquid chromatography (HPLC).
For the next data set, the system named is skin photoaging. The following applies: cited from earlier work.
A further data set concerns human fibroblasts. The data set can be described thus: Test for collagen synthesis (tritiated proline, CSP). As to the method: The same count of human fibroblasts was incubated in each well of 24-well plate for 24 hours and then the test sample was applied thereto at the concentration of 10^-4 to 10^-7 w %/ml. After 2 hours, tritiated proline (L-2,3-^3 H proline) was applied to the plate and then further incubated for 24 hours. The amount of collagen as newly synthesized and secreted by fibroblasts utilizing the culture medium was measured by calculating the amount of CPS (collagenous sensitive protein) on the basis of cpm (counting per minute) number of L-2,3-^3 H proline.

The subject of the next data set is V79-4 cells. The experiment in a line: Cytotoxicity test (MTT assay). The data set is classed as cell-based, Chinese hamster. The conditions noted are these: FIG. 2. On the technique in general: Formazan colour is commonly taken as a measure of viable cells.
For data set [2] the following is noted: relative to retinoic acid; FASEB J., 10, 1014-1024, 1996; cited from earlier work.
The subject of the next data set is auricular lymph node. The conditions noted are these: mouse, in vivo. The procedure: Toxicol. 10(3); 173-180]. […] Each of the test sample was applied to both ears of Blab/c mouse in an amount of 50μl for 3 days and then auricular lymph node was isolated from mouse. Lymph node was micronized to monocellular state and then incubated for 24 hours with addition of radioisotope (^3 H-thymidine).

Another data set relates to skin. The conditions noted are these: guinea pig, in vivo. The procedure: Assoc. Food and Drug Officials, US. Appraisal of the safety of chemicals in Food, Drugs and Cosmetics, pp46-59, Texas State Dept. of Health, Austin, Tex. and 2 Federal Register (1973): Method of testing primary irritant substances 38(187): pp1500-1541]. Six kinds of the test solutions were prepared at the concentration of 0.3% by using o/w formulation or Lexol GT-865 as the carrier vehicle. First, hair was removed from the portion (dorsal skin of mouse) for applying the test solution and then the naked portion was adapted to the environmental circumstance for 24 hours in order to minimize the skin irritability. The test solution and gauze were applied to the established portion (1.5 cm×1.5 cm) for applying the test solution, which was then sealed with the solid thin film and fixed with the elastic bandage for 48 hours in order to inhibit the evaporation and loss of the test sample. After 2 and 24 hours from removal of the closed patch (i. e. 50 and 72 hours after patch application, respectively), the degree of irritation was determined.

For data set [3] the following is noted: lipid-soluble; cited from earlier work.
Data set [4] concerns skin of 9-weeks aged naked female mouse. The experiment in a line: Test for organ incubation of skin (MTT assay).
Description: (§1) The test for organ incubation of skin was carried out by MTT assay method using naked female mouse.
The test system is the same in data set [5].
Description: as §1
Where [6] appears, read: 0.3% in Lexol GT-865, MTT assay.

Read-outs that look alike come from different tables or passages of the source.

Description for V79-4 cells: The cytotoxicity test was carried out by MTT assay method using V79-4 cells.

For the molecule `CC1=C(/C=C/C(C)=C/C=C/C(C)=C/CO)C(C)(C)CCC1` [Retinol, retinol], the “Receptor solution (amount absorbed)” value in data set [1] came to 11.48 nmol.

On to `COc1ccc(C(C)=O)c(OC(=O)/C=C(C)/C=C/C=C(C)/C=C/C2=C(C)CCCC2(C)C)c1` [2-(all-trans-retinoyloxy)-4-methoxyacetophenone], for which, in the data set with skin photoaging (U.S. Pat. No. 4,677,120), the “inhibition of skin cancer and photoaging” value was “exhibits an effect of inhibiting skin cancer and photoaging”.

“polyethoxylated retinamide of formula (I) (R=methyl, n=9.8)”: the “effect of increasing collagen synthesis at cytotoxic concentration” value in the data set on human fibroblasts (10^-3 w %/ml or more) was “does not exhibit any increasing effect”. The “increase in collagen synthesis (highest effect)” value in the data set on human fibroblasts (10^-7 w %/ml) was 33.8%. For the same molecule, the “concentration at which effect of increasing collagen synthesis begins” value in the data set with human fibroblasts (limiting concentration at which any toxicity is not caused) is listed as “below 10^-4 w %/ml”. Also, the cytotoxicity entry was “exhibits gradually” in the data set with V79-4 cells (10^-3 w %/ml or more); “only a weak toxicity” with V79-4 cells (10^-4 w %/ml and below).

Regarding `CC1=C(/C=C/C(C)=C/C=C/C(C)=C/C(=O)Nc2ccc(O)cc2)C(C)(C)CCC1` [N-(4-hydroxy-phenyl)retinamide (4-HPR), N-(4-hydroxy-phenyl)retinamide], the toxicity entry in data set [2] is on record as “relatively reduced toxicity”.

Take `CC1=C(/C=C/C(C)=C/C=C/C(C)=C/C(=O)O)C(C)(C)CCC1` [Retinoic acid, all-trans-retinoic acid]: the activation at 1e-06 w %/ml in the data set on human fibroblasts (Homo sapiens, Fibroblast, read-out: increase in collagen synthesis) was not above 21.7%. Further, the “allergy induction in comparison to ethanol” value in the data set on auricular lymph node was “six times or more”. Moreover, the “difference between the irritation degrees” value in the data set on skin was “no significant difference”. The “Receptor solution (amount absorbed)” value in data set [1] worked out at 11.40 nmol. For the same molecule, the skin photoaging result in the data set with skin photoaging (cream preparation applied to skin, JAMA 259, 1988) is reported as “can be improved”. Further, the skin absorption result in [3] is recorded as “low skin absorption”. Moreover, in data set [4] (0.3%), the “irritation” value is given as “strong irritation”. For the same molecule, in data set [4] (setting [6]), the Degree of irritation stood at 0.11 and the Safety entry was “strong irritation”.

For `CCCCCCCCCCCCCCCC(=O)OC/C=C(C)/C=C/C=C(C)/C=C/C1=C(C)CCCC1(C)C` [Retinol palmitate, retinol palmitate], the “effect of increasing collagen synthesis” value with human fibroblasts (10^-4 to 10^-7 w %/ml, FIG. 1) is “does substantially not exhibit an effect of increasing collagen synthesis”. Besides, the “allergy induction in comparison to ethanol” value in the data set on auricular lymph node was “six times or more”. Besides, the “difference between the irritation degrees” value with skin was “no significant difference”. Also, the “Receptor solution (amount absorbed)” value in data set [1] was determined as 0.48 nmol. Further, in [5], the Degree of irritation is 0.34, the Safety entry is reported as “minute irritation” and the “irritation” value is given as “weak irritation”.

Take `CC1=C(/C=C/C(C)=C/C=C/C(C)=C/C(=O)O[C@@H]2O[C@H](C(=O)O)[C@@H](O)[C@H](O)[C@H]2O)C(C)(C)CCC1` [retinoyl β-glucuronide (RAG), retinoyl β-glucuronide]: the toxicity entry in data set [2] is on record as “relatively reduced toxicity”.

In the case of `CCCCCCCCCCCCOS(=O)(=O)[O-].[Na+]` [Sodium lauryl sulfate], the Safety entry is “minute irritation” in data set [4] (control group, <0.05%); “moderate irritation” in data set [4] (control group, <0.25%); “strong irritation” in [4] (control group, <0.5%).

Source of the values: patent US6316644A, “Pilyethoxylated retinamide derivatives and process for preparing the same” (LG Chemical Ltd., priority 1998, dated 2001).
